Experimental data reported in EP3102204B1 (The University Of Mississippi, priority 2014, dated 2015).
Like-named read-outs stand apart in the source and are kept apart here.

Legend:
[1] = test system: Male, Swiss Webster mice; assay: Cocaine-induced convulsions; type: in vivo; settings: pretreatment i.p. 15 min before cocaine 70 mg/kg i.p.
[2] = test system: Male, Swiss Webster mice; assay: Development of cocaine-induced sensitization; type: in vivo; settings: pretreatment Days 1-5, cocaine 10 mg/kg i.p.
Method: Male, Swiss Webster mice were acclimated as detailed above. […] The total locomotor activity (ambulatory, fine and rearing movements) of the mice was recorded for the next 30 min as the number of disruptions made by them in the 16x16 photobeam grids of their testing chamber on each of the five days. A 10 day drug-free period followed. On Day 15, all of the mice were pre-administered (i.p.) saline followed by cocaine (10mg/kg, i.p.), and locomotor activity quantified for the next 30 min.

[3] = test system: Male, Swiss Webster mice; assay: Expression of cocaine-induced sensitization; type: in vivo; settings: compound on Day 15 before cocaine 10 mg/kg i.p.
Method: Male, Swiss Webster mice were acclimated as detailed above. For five consecutive days (Days 1-5), the mice were pretreated (i.p.) with saline, then challenged 15 min later with cocaine (10mg/kg, i.p.). The total locomotor activity (ambulatory, fine and rearing movements) of the mice was recorded for the next 30 min. A 10 day drug free period followed and on Day 15, the mice were administered saline (i.p.) or compound (0.1-20mg/kg), followed15 min later with cocaine (10mg/kg, i.p.). Locomotor activity was then recorded for the next 30 min.

[4] = test system: Male, Swiss Webster mice; assay: Cocaine-induced locomotor activity; type: in vivo; settings: pretreatment i.p. 15 min before cocaine 20 mg/kg i.p.
Method: Male, Swiss Webster mice were acclimated to the treatment room and then to the chambers of the automated activity monitoring system (San Diego Instruments, San Diego, CA). […] The total locomotor activity (ambulatory, fine and rearing movements) of the mice was recorded for the next 30 min as the number of disruptions made by them in the 16x16 photobeam grid of their testing chamber.

[5] = biological target: T1, σ-2 (Rattus norvegicus, UniProt Q5U3Y7); assay: σ receptor assay: σ-2 binding with [3H]DTG plus (+)-pentazocine; settings: for Ki: rat brain homogenates
T1 construct: from tissue; host or cells: rat brain homogenate (membrane protein)
T1 sequence (Q5U3Y7 1-176): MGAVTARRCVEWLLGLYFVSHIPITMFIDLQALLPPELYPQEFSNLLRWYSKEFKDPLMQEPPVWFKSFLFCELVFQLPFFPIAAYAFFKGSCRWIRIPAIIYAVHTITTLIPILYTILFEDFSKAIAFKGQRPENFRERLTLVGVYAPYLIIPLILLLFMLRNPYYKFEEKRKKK
Method: (§2) Compounds were evaluated for σ -1 and σ -2 binding in rat brain homogenates. […] The assays were terminated with ice-cold 10 mM Tris-HCl, pH 8.0, followed by two washes through glass fiber filters that were pre-soaked for at least 30 min in 0.5% polyethyleneimine.

[6] = test system: σ-1 receptor; settings: cited from earlier work
[7] = biological target: σ-1 (Rattus norvegicus, UniProt Q9R0C9); assay: σ receptor assay: σ-1 binding with [3H](+)-pentazocine; settings: rat brain homogenates; CM table
σ-1, sequence (Q9R0C9 whole entry): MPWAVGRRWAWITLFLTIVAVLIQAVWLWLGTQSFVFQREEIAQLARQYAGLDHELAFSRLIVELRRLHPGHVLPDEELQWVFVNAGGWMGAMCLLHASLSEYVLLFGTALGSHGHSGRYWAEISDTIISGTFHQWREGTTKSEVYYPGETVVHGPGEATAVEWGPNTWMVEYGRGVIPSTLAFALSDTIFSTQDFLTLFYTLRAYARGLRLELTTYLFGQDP
Method: as §2

[8] = in vitro; type: in vitro ADME, rat
Method: Metabolic stability of AZ_66 (1µM) was performed in Ammonium acetate buffer (50mM, pH 7.4) with Rat liver microsomes (0.5mg) at 37 °C in 0.5ml of incubation mixture. The incubation mixture composed of Ammonium acetate buffer (50mM, pH 7.4), Magnesium chloride (3mM), a NADPH regenerating system consisting of NADP (1mM), glucose-6-phosphate (5mM), and glucose-6-phosphate dehydrogenase (1Unit/mL). The Substrate and microsomes were pre incubated at 37°C for 5 min before starting the reaction. The reactions were started by the addition of regenerating system and carried out at 37°C in a shaking water bath for 60min. The incubations were stopped by adding an equal volume of ice cold acetonitrile at predetermined time points (0, 5, 15, 30, 60 min). The samples were centrifuged for 10min at 4°C and the supernatant was injected into UPLC/MS/MS. Control incubation without NADPH was also performed and these served as 100% value. All microsomal incubations were conducted using the same lot of microsomes.
In vitro half-life and CLint: The percent of the parent compound remaining is plotted versus time. The slope of the line gives the rate constant k for the disappearance of parent compound, from which an in vitro t1/2 can be calculated. CLint can be calculated using the following formula CLint = k(min^−1) × ([V](L))/([P](mg)) = (L/mg×min) [formula] […]

[9] = test system: σ-1 receptor; assay: Cell uptake studies in transfected CHO cells; settings: at 120 min
Method: Control CHO cells (transfected with a vector not containing the σ-1 receptor gene - to serve as a negative control) and CHO cells transfected with a vector containing σ-1 receptor cDNA (to serve as a positive control for σ-1 receptor expression in cells) were used for the uptake assays. […] The incubated cells were subsequently washed, lysed and counted for radioactivity. All collected data were normalized for amount of protein present in each well.
Cells CHO cells were grown in Ham's F-12 medium. For uptake studies CHO cells were transfected using Lipofectamine 2000 (Invitrogen, Carlsbad, CA, USA) and either pcDNA (empty vector, negative control) or σ-1 receptor gene (OPRS1, accession number NM_005866.2, origin, Rockville, MD, USA) following manufacturer's directions. […] Twenty-four hours later, CHO cells were transfected with either 0.8 µg pcDNA (empty vector, control), or 0.8 µg sigma-1 DNA. […] A portion of each lysate (250 µL) was transferred to a glass tube and activity was measured with a Cobra II γ counter (Packard-Perkin Elmer, Waltham, MA, USA). Protein content from each well was measured by Bradford assay. The same protocol was followed for (+)-[^3H]pentazocine, except the activity was measured with a liquid scintillation counter (Beckman Coulter LS 6500, Brea, CA, USA).

[10] = biological target: σ-1 receptors (Mus musculus, UniProt O55242); assay: Small-animal PET imaging in mice (brain); type: in vivo
σ-1 receptors (Mus musculus, UniProt O55242), sequence (O55242 whole entry): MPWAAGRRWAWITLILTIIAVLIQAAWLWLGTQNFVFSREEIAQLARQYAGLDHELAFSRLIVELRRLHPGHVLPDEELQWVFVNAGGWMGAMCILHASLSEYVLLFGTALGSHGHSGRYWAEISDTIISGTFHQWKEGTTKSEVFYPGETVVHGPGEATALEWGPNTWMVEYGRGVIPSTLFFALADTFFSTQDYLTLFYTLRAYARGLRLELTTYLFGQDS

[11] = analytical reverse-phase HPLC
[12] = biological target: serotonin transporters; assay: Non-σ competition binding assay, [3H]paroxetine; settings: rat brain homogenates; read-out: SERT Ki
Method: (§1) Compounds were tested at various non-σ target sites to evaluate selectivity because cocaine interacts with these sites (dopamine, serotonin and norepinephrine transporters) or historic "sigma" ligands interact with them (opioid, NMDA, dopamine D2, 5-HT2 receptors). The compounds were tested in competition binding assays using rat brain homogenates as previously published. […] The results were reported as Ki in nM.

[13] = test system: Male, Swiss Webster mice; assay: Methamphetamine-induced dopamine depletions; type: in vivo; settings: methamphetamine 5 mg/kg x 4 at 2 hr intervals; striatal dopamine one week later
Method: Male, Swiss Webster mice were injected (i.p.) with saline or compound (0-20mg/kg), followed 15 min later with either saline (- METH) or methamphetamine (5mg/kg) at 2hr intervals, a total of four times. Striatal dopamine levels were measured one week later.

[14] = biological target: 5-HT2 receptors; assay: Non-σ competition binding assay, [3H]ketanserin; settings: rat brain homogenates
Method: as §1

[15] = biological target: NMDA receptors; assay: Non-σ competition binding assay, [3H]TCP; settings: rat brain homogenates
Method: as §1

[16] = test system: Male, Swiss Webster mice; assay: Methamphetamine-induced locomotor activity; type: in vivo; settings: pretreatment i.p. 15 min before methamphetamine 1 mg/kg i.p.
Method: Male, Swiss Webster mice were acclimated as detailed above. […] The total locomotor activity (ambulatory, fine and rearing movements) of the mice was recorded for the next 30 min as the number of disruptions made by them in the 16x16 photobeam grids surrounding their testing chambers.

[17] = biological target: norepinephrine transporters; assay: Non-σ competition binding assay, [3H]nisoxetine; settings: rat brain homogenates; read-out: NET Ki
Method: as §1

[18] = biological target: dopamine transporters; assay: Non-σ competition binding assay, [3H]WIN35,428; settings: rat brain homogenates; read-out: DAT Ki
Method: as §1

[19] = biological target: T2, dopamine D2 receptors (Rattus norvegicus, UniProt P61169); assay: Non-σ competition binding assay, [3H](-)-sulpiride; settings: rat brain homogenates
T2 construct: from tissue; host or cells: rat brain homogenate
T2 sequence (P61169 whole entry): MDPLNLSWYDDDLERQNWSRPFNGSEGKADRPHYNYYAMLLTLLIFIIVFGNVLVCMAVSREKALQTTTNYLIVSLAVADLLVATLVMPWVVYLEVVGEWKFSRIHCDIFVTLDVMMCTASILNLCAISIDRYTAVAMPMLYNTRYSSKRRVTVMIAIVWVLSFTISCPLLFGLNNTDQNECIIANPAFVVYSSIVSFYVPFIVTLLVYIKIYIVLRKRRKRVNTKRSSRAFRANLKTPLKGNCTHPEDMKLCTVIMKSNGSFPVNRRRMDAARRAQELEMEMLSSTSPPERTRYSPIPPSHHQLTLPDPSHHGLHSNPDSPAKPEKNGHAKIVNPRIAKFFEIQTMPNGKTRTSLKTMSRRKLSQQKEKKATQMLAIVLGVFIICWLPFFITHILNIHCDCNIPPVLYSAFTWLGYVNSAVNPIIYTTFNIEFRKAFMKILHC
Method: as §1

[20] = pKa by potentiometric titration; type: physicochemical
Method: A solution of 0.01 M sodium hydroxide was prepared and the pH measured as 11.9. Similarly, 0.01 M hydrochloric acid solution was prepared and the pH measured as 2.07. […] To the same sample, 0.1 mL portions of hydrochloric acid were added and pH recorded until it became constant. A titration curve was then plotted as pH versus the volume of base/acid added.

[21] = biological target: σ-1 receptors; assay: In vitro radioligand binding assays of CM304 at sigma receptors; set-up: species or system rat
Method: Competition binding assays were performed as previously described. Briefly, radioligands were used to tag the targeted sites under standard conditions.

[22] = in vitro; type: in vitro ADME; set-up: dose or concentration left out as unconfirmed; settings: pH 7.4; mouse liver microsomes, NADPH-generating system, 37 °C
Method: The reaction was initiated by adding cofactors and quenched at designated time points (0, 5, 10, 15, 30, 45, 60 min) by the addition of an equal volume of ice-cold acetonitrile (ACN). […].
The basic incubation mixture consisted of 5 mM substrate, 1 mg/mL microsomal protein, 3 mM MgCl2, 1 mM NADP, 5 mM glucose-6-phosphate, 1 IU/mL glucose-6-phosphate dehydrogenase, 100 mM Tris HCl buffer (pH 7.4) in a final volume of 1 mL. The reaction was initiated by adding cofactors and quenched at designated time points (0, 5, 10, 15, 30, 45, 60 min) by addition of an equal volume of ice-cold ACN. The mixture was centrifuged at 3000 rpm for 10 min, and the supernatant was analyzed by UPLC/MS/MS.

## CC(=O)c1ccc2c(c1)oc(=O)n2CCCCN1CCN(c2ccc(F)cc2)CC1 [SN-79]
[1]
  attenuation of cocaine-induced convulsions: significant attenuation
[2]
  development of cocaine-induced sensitization: attenuates the development of cocaine-induced sensitization
[3]
  expression of cocaine-induced sensitization (behavioral sensitization): attenuates the expression of cocaine-induced sensitization
[4]
  attenuation of cocaine-induced locomotor activity: significant attenuation
[5]; SN table, read-out: Ki (nM) σ2
  Ki: 6.06 nM

## [17F]CCC1OC2(CCN(Cc3ccccc3)CC2)c2ccccc21 (stereo not shown) [[^18F]fluspidine]
[6]; at 60 minutes post injection
  brain level relative to its maximum: 81%
[6]; biodistribution in mice, over 2 hours
  reduction in brain uptake: 40%
[6]; post injection
  time of maximum uptake in the brain: 30 min

## Fc1ccc(-c2cn(CCCCN3CCN(c4ccc(F)cc4)CC3)c3ccccc23)cc1 [CM 350]
[7]
  Ki: 1200 ± 73.9 nM

## CC(CCCn1c(=O)sc2cc(F)ccc21)N1CCN(C2CCCCC2)CC1 (stereo not shown) [AZ_66]
[8]; control incubation without NADPH
  loss of substrate in the absence of cofactor: no loss of substrate
[8]; rat, microsomes, pH 7.4, by 60 min, read-out: added substrate metabolized by microsomes
  metabolised at 1 h, 1 µM: ~25%

## c1ccc2c(c1)ccn2CCCCN1CCN(C2CCCCC2)CC1 [CM 341]
[5]; CM table, read-out: Ki (nM) […]2
  Ki: 1.9 ± 0.16 nM

## CC(C)=CCN1CC[C@]2(C)c3cc(O)ccc3C[C@H]1[C@H]2C [(+)-[^3H] pentazocine, reference compound]
[9]
  uptake in cells transfected with σ-1 receptor cDNA versus control CHO cells: 3.6 fold

## O=c1sc2cc(CCC[18F])ccc2n1CCN1CCCCCC1 [[^18F]FTC-146, 6-(3-fluoropropyl) -3-(2-(azapan-1-yl)ethyl) benzo [d] thiazol-2 (3H) -one]
[10]; at 60 min, pre-treatment with CM304 1 mg/kg 10 minutes prior to radioligand
  reduction of [18F]FTC-146 binding in the brain: 83%
[10]; mouse, brain, iv, read-out: maximum uptake in brain
  tissue uptake: ~17 %ID/g
[9]
  uptake in cells transfected with σ-1 receptor cDNA versus control CHO cells: 4 fold
[11]
  stability of formulated version in saline/ethanol (9:1): at least 5.5 hours

## Cn1c(=O)n(CCCCN2CCN(C3CCCCC3)CC2)c2ccccc21 [CM 396]
[5]; CM table, read-out: Ki (nM) […]2
  Ki: 2.57 ± 0.47 nM

## Fc1ccc(-c2cn(CCCCN3CCN(C4CCCCC4)CC3)c3ccccc23)cc1 [CM 349]
[7]
  Ki: 90.9 ± 12.3 nM
[5]; CM table, read-out: Ki (nM) […]2
  Ki: 22.6 ± 1.13 nM

## S=c1sc2ccccc2n1CCCCN1CCN(C2CCCCC2)CC1 [CM156]
[12]
  Ki: 1400 ± 152 nM
[13]
  neurotoxic effects resulting from methamphetamine exposures (dopamine depletions): attenuated
[14]
  Ki: 1330 ± 159 nM
[1]
  attenuation of cocaine-induced convulsions: significant attenuation
[15]
  Ki: > 10000 nM
[3]
  expression of cocaine-induced sensitization (behavioral sensitization): significant attenuation
[16]
  locomotor stimulant effects of methamphetamine: attenuated
[4]
  attenuation of cocaine-induced locomotor activity: significant attenuation
[17]
  Ki: > 10000 nM
[18]
  Ki: 1175 ± 10 nM
[19]
  Ki: 1041 ± 9 nM

## Cl.O=c1sc2cc(CCCF)ccc2n1CCN1CCCCCC1 [CM304, 3-(2-(azepan-1-yl)ethyl)-6-(3-fluoropropyl)benzo[d]thiazol-2(3H)-one hydrochloride]
[1]
  attenuation of cocaine-induced convulsions: significantly attenuated
[20]
  experimental pKa: 10.4
[21]
  Ki: 0.0025 nM
[22]
  half-life: 4.2 min

## O=c1oc2ccccc2n1CCCCN1CCN(C2CCCCC2)CC1 [CM 121]
[5]; σ-2 over σ-1
  preference (selectivity) for the σ-2 subtype: six fold

## O=c1sc2ccccc2n1CCCCN1CCN(C2CCCCC2)CC1 [CM 145]
[5]; CM table, read-out: Ki (nM) […]2
  Ki: 0.39 ± 0.06 nM
